Measured values from PMC7253423, “Quassinoid analogs with enhanced efficacy for treatment of hematologic malignancies target the PI3Kγ isoform” (Communications Biology, 2020).
pIC50: −log10 of the molar value. Where “and” joins values, the source holds several entries; their conditions need not be identical. Equal values may be shown once.

How the values were obtained:
[1] = test system: Raji cells; assay: Cell viability assay (CellTiter-Glo luminescence); assay type: cell-based, human; details: Homo sapiens, analogs, 72 h, Fig. 5c, read-out: IC50
Protocol: (§1) 5000 cells as indicated were cultured in 96-well plate with 100 μl of media. […] After treatment, the cells were incubated with 100 μl buffer for 10 min at room temperature following the instructions of CellTiter-Glo kit (Promega, Madison, WI). Luminescence was detected using a multi-mode reader Cytation 5 (BioTek, Winooski, VT). […] Two independent experiments done in duplicates were performed.

[2] = test system: MOLM14 xenografts; assay: In vivo tumorigenic assay using xenografts, tumor size; set-up: species or system NOD/SCID mice; details: MOLM14 xenograft
Protocol: (§2) Six-week-old male NOD.CB17-Prkdc^scid/J (NOD/SCID) mice (Jackson Labs, Bar Harbor, ME, USA) were used as the human-in-mouse xeno-transplantation model. MOLM14 cells (1 × 10^7 cells) were injected into the subcutaneous space on the left flank of the mice. […] Body weight and tumor size were monitored before every injection. After treatment for 2 weeks, the mice were euthanized by CO2 inhalation and the tumors were carefully excised. The tumor volume (mm^3) was measured and calculated using the formula (a × b × b)/2 (a, the largest diameter of two measurements; b, the smallest diameter of two measurements).

[3] = test system: hematologic malignancies derived cell lines; assay: Cell viability assay, panel of hematologic malignancy derived cell lines; assay type: cell-based, human; details: 100 nM, 72 h, lymphoma, leukemia and multiple myeloma cell lines (13 cell lines for analogs)
Protocol: 5000 cells as indicated were cultured in 96-well plate with 100 μl of media. On the next day, Brusatol or associated analogs were added once to the cells without media change. After treatment, the cells were incubated with 100 μl buffer for 10 min at room temperature following the instructions of CellTiter-Glo kit (Promega, Madison, WI). Luminescence was detected using a multi-mode reader Cytation 5 (BioTek, Winooski, VT). […] Two independent experiments done in duplicates were performed.

[4] = Body weight of xenograft mice; assay type: in vivo, NOD/SCID mice; details: individual mice, Fig S3i, in g (unit assumed)
Protocol: as §2

[5] = test system: PBMC; assay: Cytotoxicity, cell viability assay in normal cells; assay type: cell-based, human; details: Fig 5c
Text: Human peripheral blood mononuclear cells (PBMCs), normal T-cells and B-cells were provided by the University of Pennsylvania Human Immunology Core (HIC), and Patient-derived xenografts (PDXs) were obtained from Fox Chase Cancer Center (FCCC). These samples were from different unidentified and healthy donors with written, informed consent. All the procedures were approved by the Institutional Review Board (IRB) and conducted according to the declarations of Helsinki protocols.
as §1

Row | Compound | pIC50 [1] | tumor size (Fig 5d&5e), individual mice ([2]; 0d) | tumor size (Fig 5d&5e), individual mice ([2]; 2d) | tumor size (Fig 5d&5e), individual mice ([2]; 4d) | tumor size (Fig 5d&5e), individual mice ([2]; 6d) | tumor size (Fig 5d&5e), individual mice ([2]; 8d) | tumor size (Fig 5d&5e), individual mice ([2]; 10d) | tumor size (Fig 5d&5e), individual mice ([2]; 12d) | inhibition of cell viability in panel of cell lines [3] | Body weight ([4]; 0d) | Body weight ([4]; 2d) | Body weight ([4]; 4d) | Body weight ([4]; 6d) | Body weight ([4]; 8d) | Body weight ([4]; 10d) | Body weight ([4]; 12d) | Cell viability, raw luminescence reading ([5]; Con. 0.01 μM) | Cell viability, raw luminescence reading ([5]; Con. 0.039 μM) | Cell viability, raw luminescence reading ([5]; Con. 0.156 μM) | Cell viability, raw luminescence reading ([5]; Con. 0.625 μM) | also measured
1 | COC(=O)C12OCC34C(CC5C(C)=C(OC(=O)C6CCCN6)C(=O)CC5(C)C3C(O)C1O)OC(=O)C(OC(=O)C=C(C)C)C24 (stereo not drawn) [#31] | 7.44 | 74.2529 and 62.0281 and 101.973 and 60.5009 and 91.8956 and 82.6996 | 107.191 and 120.034 and 71.2216 and 100.836 and 98.4479 and 88.2667 | 99.5578 and 195.79 and 71.7513 and 67.0262 and 52.5262 and 97.4505 | 95.2698 and 78.8527 and 143.077 and 70.9567 and 158.17 and 228.179 | 324.747 and 668.944 and 318.873 and 96.919 and 128.11 and 346.937 | 458.137 and 927.585 and 502.969 and 200.67 and 236.721 and 666.334 | 959.947 and 1557.75 and 485.372 and 249.92 and 359.5 and 1074.17 | significantly inhibit | 25.68 and 24.55 and 25.16 and 23.48 | 27.27 and 26.58 and 25.38 and 25.93 and 25.43 and 23.7 | 26.97 and 26.67 and 25.81 and 25.44 and 25.69 | 27.97 and 26.96 and 26.09 | 28.38 and 27.82 and 26.73 and 25.66 | 28.24 and 27.47 and 25.9 and 26.82 and 26.06 | 29.56 and 29.11 and 26.31 and 27.31 | 21395 and 22004 | 12976 and 10747 | 7357 and 6947 | 8946 and 8046 | Cell viability, raw luminescence reading ([5]; Con. 10 μM): 8102 and 7279
2 | COC(=O)C12OCC34C(CC5C(C)=C(OC(=O)C(N)Cc6ccccc6)C(=O)CC5(C)C3C(O)C1O)OC(=O)C(OC(=O)C=C(C)C)C24 (stereo not drawn) [#14] | 7.41 | 146.154 and 92.4556 and 61.5288 and 118.617 and 111.079 and 97.6091 | 155.286 and 83.3599 and 78.5598 and 123.615 and 132.099 and 148.619 | 205.624 and 120.823 and 83.03 and 205.911 and 121.618 and 141.386 | 215.948 and 214.154 and 405.903 and 288.793 and 65.298 and 81.0923 | 654.828 and 372.84 and 268.332 and 549.466 and 314.977 and 266.348 | 1094.41 and 794.074 and 511.007 and 817.839 and 517.393 and 583.109 | 1848.1 and 1147.5 and 978.929 and 1531.82 and 970.42 and 1008.11 | significantly inhibit | 25.66 and 26.32 and 25.88 and 25.26 and 25.69 | 26.84 and 26.83 and 25.73 | 30.22 and 27.96 | 31.1 and 27.6 | 31.54 and 29.03 and 29.06 and 28.16 and 27.82 and 27.45 | 32.14 and 29.64 and 29.88 and 28.65 and 28.04 | 33.33 and 31.09 and 31.73 and 30.06 and 30.08 | 16702 and 18584 | 14138 and 13170 | 9796 and 9988 | 7942 and 8235 | Cell viability, raw luminescence reading ([5]; Con. 10 μM): 10547 and 15443
